Experimental data from article PMC9421656, “Beyond Retigabine: Design, Synthesis, and Pharmacological Characterization of a Potent and Chemically Stable Neuronal Kv7 Channel Activator with Anticonvulsant Activity” (Journal of Medicinal Chemistry, 2022).
Several values for one entry are separate records, joined by “and”; a condition that tells them apart may be missing. Equal values may be shown once. Entries after “also recorded” stand apart in the source; their conditions may differ.

Experiments:
[1] = In vitro metabolism assay (S9 fraction of human liver microsomes); type: in vitro ADME
Experimental: To further explore the metabolic stability of compounds 25, 26, and 60 in a biologically relevant model, they were tested in an in vitro metabolism assay (S9 fraction of human liver microsomes) using retigabine as a comparator.[33],[34] In this assay, a very small extent (4.7 ± 0.5%) of retigabine undergoes phase I metabolism, whereas a larger fraction (17.4 ± 1.2%) was metabolized in phase II reactions, as previously reported.[35]

[2] = Lipophilicity (log P)
[3] = molecular target: Kv7.2/Kv7.3 channels (Homo sapiens, UniProt O43525+O43526); test: FluxOR thallium-sensitive fluorescence-based assay in CHO cells stably expressing Kv7.2 + Kv7.3; type: cell-based; set-up: expressed in transfected cells; details: for Slope of the fluorescent signal at 10 μM: initial slope of FluxOR signal between 5 and 15 s, mean ± SEM; for EC50: FluxOR dose-response, slope parameter, read-out: EC50 (initial slope of the fluorescence signal)
Experimental: While assay robustness in Kv7.2/Kv7.3-expressing cells was high (Z′ factor > 0.5),[27] the Z′ factor calculated in CHO cells expressing Kv7.2 subunits alone was <0.5; thus, all subsequent pharmacological screens were performed in Kv7.2/Kv7.3-expressing cells. […] The Kv7.2/Kv7.3-stable cell line was generated using a plasmid-based PiggyBac transposon system that enables genomic integration of multiple independent transposons containing distinct cDNA sequences. cDNAs for KCNQ2 and KCNQ3 genes (encoding for Kv7.2 and Kv7.3, respectively) were cloned into two different PiggyBac expression vectors (pB-CMV-MCS-EF1α-RedPuro, System Biosciences), and these two plasmids, together with a plasmid encoding for the transposase (System Biosciences), were transfected into CHO cells using Lipofectamine 2000 (Invitrogen) as indicated in the protocol provided by the seller company.
The selected clone stably expressing Kv7.2/Kv7.3 channels was grown in DMEM supplemented with 10% FBS, 50 U/mL Pen-Strep, 2 mM L-glutamine (all purchased from Gibco), and 4 μg/mL puromycin (Sigma) in a humidified atmosphere at 37 °C with 5% CO2. […] A kinetic dispense microplate reader (FLUOstar Optima) was used to read the plate, setting the excitation filter at 485 nm and the emission filter at 520 nm; “Stimulus buffer” prepared as indicated in the protocol was automatically added to wells after 5 s of recording; the plate was read every 1 s, for 50 s. The results were analyzed using Optima Data Analysis and Microsoft Excel.
Only experiments resulting in a Z′ > 0.5 were considered. Data shown (Figures 1D,E,F,G and 3B) were obtained from at least three independent experiments.
Data were analyzed using the GraphPad Prism 8.0.2 (GraphPad Software, LaJolla, CA). Statistically significant differences in the initial slope of the curves were evaluated through ordinary one-way ANOVA, and multiple comparisons were corrected with the Tukey test. […] Indicated EC50 values are the mean of at least three independent experiments ± standard error of the mean (SEM).

[4] = molecular target: T1, Kv7.2 S303A channels (Homo sapiens, UniProt O43526, S303A); test: Whole-cell patch-clamp on homomeric Kv7.2 S303A mutant channels; type: cell-based; details: 10 μM RET or 1 μM 60
T1 construct: expressed in transfected cells; host or cells: CHO cells, transient transfection (pcDNA3.1)
Excerpt: Current scale, 200 pA; time scale, 200 ms. (B,C) Dose–response curves reporting the effects of the 3 indicated compounds on the V1/2 shift (ΔV1/2) in mV (B) and on maximal current density (Idrug/Icontrol; C) calculated at +20 mV for Kv7.2/Kv7.3 channels.
Channel subunits were expressed in Chinese hamster ovary (CHO) cells by transient transfection, using plasmids containing cDNAs encoding human Kv7.2 and/or Kv7.3, all cloned in the pcDNA3.1 vector. According to the experimental protocol, these plasmids were expressed individually or in combination, together with a plasmid-expressing enhanced green fluorescent protein (Clontech, Palo Alto, CA) used as a transfection marker. Total cDNA in the transfection mixture was kept at 4 μg. CHO cells were grown in 100 mm plastic Petri dishes in Dulbecco’s modified Eagle’s medium containing 10% fetal bovine serum, nonessential amino acids (0.1 mM), penicillin (50 U/mL), and streptomycin ([…]) in a humidified atmosphere at 37 °C with 5% CO2.
Currents from CHO cells were recorded at room temperature (20–22 °C) using the whole-cell configuration of the patch-clamp technique, with glass micropipettes of 3–5 MΩ resistance. During the recording, constant perfusion of extracellular solution was maintained. […] The pipette (intracellular) solution contained (in mM): 140 KCl, 2 MgCl2, 10 EGTA, 10 HEPES, 5 Mg^2+-ATP, at pH 7.3–7.4, with KOH. […]

[5] = tested on: PTZ-induced seizures; test: Pentylenetetrazol (PTZ)-induced acute seizures in mice; type: in vivo, C57Bl/6 mice; details: for Seizure score (Lüttjohann's scale): 30 min before PTZ 100 mg/kg s.c.; for Latency to maximal seizures: 30 min before PTZ; for Survival rate in PTZ seizure model: end of 60 min observation; for Minimum effective dose: i.p., PTZ model
Experimental: A subcutaneous (s.c.) injection of 100 mg/kg PTZ in mice is able to trigger convulsive behavior whose intensity can be assessed and quantified according to the revised Lüttjohann’s scale (see Materials and Methods),[40] using a 9-point severity score ranging from 0 (whisker trembling) to 8 (wild jumping). For each animal, the maximal severity score (Figure 5A) and the time latency required to reach such values (Figure 5B) were recorded.
Food and water were available ad libitum. Animals were experimentally naive and were used only once.
Thus, each dose was dissolved to allow injection of 0.01 mL/g, i.p. The control group was represented by mice injected only with vehicle solution (saline containing 2% Tween-20 and 2% PEG-400).
PTZ was injected, and animals were placed in clear Plexiglass boxes for observation of seizure activity. The severity of convulsions (from minimal “clonic” to maximal “generalized tonic–clonic”) as well as the latency to onset of maximal seizure was recorded.
0 = whisker trembling, 1 = sudden behavioral arrest, 2 = facial jerking, 3 = neck jerks, 4 = clonic seizures (sitting), 5 = tonic clonic seizures (lying on belly), 6 = clonic seizures (lying on side), 7 = tonic clonic seizures (lying on side), 8 = wild jumping. The behavioral assessments described above were performed in a blind manner and the observers had to reach a unanimous agreement regarding the scoring of the behavior.
The number of animals needed for the experiment was determined using the power analysis software GPower version 3.1.92. The required minimum sample size was 8 mice per group. Statistical analyses were performed using GraphPad Prism (GraphPad Software, LaJolla, CA) using a one-way analysis of variance with the Tukey post-hoc test. The P value of <0.05 was accepted as indicative of a statistically significant difference.

[6] = S9 fraction of human liver microsomes
[7] = 3 mg/kg i.p., listed as Retigabine

For CCOC(=O)Nc1ccc(NCc2ccc(F)cc2)cc1N [RET, retigabine], the “Phase I turnover metabolism” value [1, 6] was 4.7 ± 0.5%, the “Phase II turnover metabolism” value [1, 6] was 17.4 ± 1.2% and the “log P” value ([2]; method not stated) was 3.08. For the same compound, the “Slope of the fluorescent signal at 10 μM” value ([3]; 10 μM) was 0.0270±0.0052, the EC50 [3] was 11.2 ± 1.6 µM and the “Kv7 opening ability in S303A channels” value [4] was “slightly but significantly reduced”. The “Seizure score (Lüttjohann's scale)” value ([5]; 1 mg/kg i.p.) was 6.9 ± 0.3, the “Latency to maximal seizures” value ([5]; 3 mg/kg i.p.) was 1041.4±223.2 (at 3 mg/Kg) s and the “Seizure score (Lüttjohann's scale)” value ([5]; 3 mg/kg i.p.) was 7.3±0.3 (at 3 mg/Kg). The “Seizure score (Lüttjohann's scale)” value [5, 7] was 7.3 ± 0.3, the “Latency to maximal seizures” value [5, 7] was 1041.4 ± 223.2 s and the “Survival rate in PTZ seizure model” value ([5]; 3 mg/kg i.p.) was 40% (at 3 mg/Kg). For the same compound, the “Survival rate in PTZ seizure model” value ([5]; 3 mg/kg i.p., listed as retigabine) was 40% and the Minimum effective dose [5] was 3 mg/kg.

In the case of CC(C)(C)CC(=O)Nc1ccc(NCc2ccc(C(F)(F)F)cc2)c(F)c1N [compound 60, N-(2-Amino-3-fluoro-4-((4-(trifluoromethyl)benzyl)amino)phenyl)-3,3-dimethylbutanamide], the “Phase I turnover metabolism” value ([1]; human) is reported as 8.2 ± 2.7%, the “Phase II turnover metabolism” value ([1]; human) is reported as 15.6 ± 0.3% and the logP [2] is reported as 4.74. For the same compound, the “Kv7 opening activity (in words)” value ([3]; 10 μM, compared with retigabine or the reference compound of the subseries) was “enhanced; also recorded: higher than that of retigabine”, the “Slope of the fluorescent signal at 10 μM” value ([3]; 10 μM) was 0.0594±0.0026 and the EC50 [3] was 3.2 ± 1.7 µM. For the same compound, the “Kv7 opening ability in S303A channels” value [4] was “slightly but significantly reduced”, the “Latency to maximal seizures” value ([5]; 0.3 mg/kg i.p.) was 1159.7 ± 169.4 s and 1159.7±169.4 (at 0.3 mg/Kg) s and the “Animals surviving in PTZ seizure model” value ([5]; 1 mg/kg i.p., surviving/treated animals) was 8/8. For the same compound, the “Survival rate in PTZ seizure model after XE991 pretreatment” value ([5]; compound 60 with XE991 3 mg/kg i.p. pretreatment) was 75% and the Minimum effective dose [5] was 0.3 mg/kg.
